# From PubChem BioAssay AID1963826 (Molecular Pharmacology Branch, DTP, NCI, 2024)
# Test system: 926638-142-R-J1-PDC complex spheroid viability
# Test: Anticancer human tumor 926638-142-R-J1-PDC patient-derived endometrial carcinoma cell line growth inhibition [POLQ]
# Details: for IC50: curve of first compound; for viability, T/C: stronger effect = lower value
# Procedure, shortened: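 Three-cell-type spheroids modelling solid tumor plus stroma served as the readout system; POL inhibitors were tested individually and in combination, concentration ranges set by clinical Cmax where known.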
# [1] = second compound 0.0316 µM, first compound 0.0316 µM
# [2] = second compound 0.0316 µM, first compound 0.1 µM
# [3] = second compound 0.0316 µM, first compound 0.316 µM
# [4] = second compound 0.0316 µM, first compound 1 µM
# [5] = second compound 0.0316 µM, first compound 3.16 µM
# [6] = second compound 0.0316 µM, first compound 10 µM
# [7] = second compound 0.1 µM, first compound 0.0316 µM
# [8] = second compound 0.1 µM, first compound 0.1 µM
# [9] = second compound 0.1 µM, first compound 0.316 µM
# [10] = second compound 0.1 µM, first compound 1 µM
# [11] = second compound 0.1 µM, first compound 3.16 µM
# [12] = second compound 0.1 µM, first compound 10 µM
# [13] = second compound 0.316 µM, first compound 0.0316 µM
# [14] = second compound 0.316 µM, first compound 0.1 µM
# [15] = second compound 0.316 µM, first compound 0.316 µM
# [16] = second compound 0.316 µM, first compound 1 µM
# [17] = second compound 0.316 µM, first compound 3.16 µM
# [18] = second compound 0.316 µM, first compound 10 µM
# [19] = second compound 1 µM, first compound 0.0316 µM
# [20] = second compound 1 µM, first compound 0.1 µM
# [21] = second compound 1 µM, first compound 0.316 µM
# [22] = second compound 1 µM, first compound 1 µM
# [23] = second compound 1 µM, first compound 3.16 µM
# [24] = second compound 1 µM, first compound 10 µM
# [25] = second compound 3.16 µM, first compound 0.0316 µM
# [26] = second compound 3.16 µM, first compound 0.1 µM
# [27] = second compound 3.16 µM, first compound 0.316 µM
# [28] = second compound 3.16 µM, first compound 1 µM
# [29] = second compound 3.16 µM, first compound 3.16 µM
# [30] = second compound 3.16 µM, first compound 10 µM
# [31] = second compound 10 µM, first compound 0.0316 µM
# [32] = second compound 10 µM, first compound 0.1 µM
# [33] = second compound 10 µM, first compound 0.316 µM
# [34] = second compound 10 µM, first compound 1 µM
# [35] = second compound 10 µM, first compound 3.16 µM
# [36] = second compound 10 µM, first compound 10 µM
# 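Also: spheroids exposed to drugs for one week before readout.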
# 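For viability, T/C in this document: percent viability relative to DMSO vehicle control wells set as 100%.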
compound,measurement,setting,value
C#Cc1c(F)ccc2cc(O)cc(-c3ncc4c(N5CC6CCC(C5)N6)nc(OCC56CCCN5CC(F)C6)nc4c3F)c12 (stereo unspecified) + Nc1ccc(C#CCN(C(=O)Cc2ncc(C(F)(F)F)cc2C(F)(F)F)c2ccc(F)cc2)nn1,IC50,second compound 0.0316 µM,> 10 µM
same,IC50,second compound 0.1 µM,> 10 µM
same,IC50,second compound 0.316 µM,> 10 µM
same,IC50,second compound 1 µM,> 10 µM
same,IC50,second compound 3.16 µM,> 10 µM
same,IC50,second compound 10 µM,> 10 µM
same,"viability, T/C",[1],97.8%
same,"viability, T/C",[2],95%
same,"viability, T/C",[3],83.7%
same,"viability, T/C",[4],80.1%
same,"viability, T/C",[5],71.8%
same,"viability, T/C",[6],64.5%
same,"viability, T/C",[7],125%
same,"viability, T/C",[8],83.2%
same,"viability, T/C",[9],79.1%
same,"viability, T/C",[10],82.2%
same,"viability, T/C",[11],75.9%
same,"viability, T/C",[12],71.2%
same,"viability, T/C",[13],84.4%
same,"viability, T/C",[14],101%
same,"viability, T/C",[15],84.2%
same,"viability, T/C",[16],76.7%
same,"viability, T/C",[17],79.8%
same,"viability, T/C",[18],59.3%
same,"viability, T/C",[19],105%
same,"viability, T/C",[20],101%
same,"viability, T/C",[21],89.4%
same,"viability, T/C",[22],85.6%
same,"viability, T/C",[23],81.2%
same,"viability, T/C",[24],59.2%
same,"viability, T/C",[25],88%
same,"viability, T/C",[26],93.4%
same,"viability, T/C",[27],74.2%
same,"viability, T/C",[28],87%
same,"viability, T/C",[29],80.3%
same,"viability, T/C",[30],66.3%
same,"viability, T/C",[31],99.1%
same,"viability, T/C",[32],78.2%
same,"viability, T/C",[33],80%
same,"viability, T/C",[34],70.7%
same,"viability, T/C",[35],79.3%
same,"viability, T/C",[36],53.1%
CC(C)n1c(=O)n(C)c2cnc3cc(F)c(-c4ccc(OCCCN5CCCCC5)nc4)cc3c21 + Nc1ccc(C#CCN(C(=O)Cc2ncc(C(F)(F)F)cc2C(F)(F)F)c2ccc(F)cc2)nn1,IC50,second compound 0.0316 µM,> 10 µM
same,IC50,second compound 0.1 µM,> 10 µM
same,IC50,second compound 0.316 µM,> 10 µM
same,IC50,second compound 1 µM,> 10 µM
same,IC50,second compound 3.16 µM,> 10 µM
same,IC50,second compound 10 µM,> 10 µM
same,"viability, T/C",[1],105%
same,"viability, T/C",[2],98%
same,"viability, T/C",[3],106%
same,"viability, T/C",[4],107%
same,"viability, T/C",[5],95%
same,"viability, T/C",[6],73.6%
same,"viability, T/C",[7],120%
same,"viability, T/C",[8],103%
same,"viability, T/C",[9],95.6%
same,"viability, T/C",[10],106%
same,"viability, T/C",[11],90.1%
same,"viability, T/C",[12],74.6%
same,"viability, T/C",[13],96.3%
same,"viability, T/C",[14],99.2%
same,"viability, T/C",[15],96%
same,"viability, T/C",[16],93.9%
same,"viability, T/C",[17],84.5%
same,"viability, T/C",[18],65.4%
same,"viability, T/C",[19],104%
same,"viability, T/C",[20],106%
same,"viability, T/C",[21],84.7%
same,"viability, T/C",[22],90%
same,"viability, T/C",[23],83%
same,"viability, T/C",[24],73.7%
same,"viability, T/C",[25],93.5%
same,"viability, T/C",[26],84.7%
same,"viability, T/C",[27],93%
same,"viability, T/C",[28],93.8%
same,"viability, T/C",[29],83.4%
same,"viability, T/C",[30],71.2%
same,"viability, T/C",[31],73.6%
same,"viability, T/C",[32],85.6%
same,"viability, T/C",[33],97.2%
same,"viability, T/C",[34],96.1%
same,"viability, T/C",[35],86.3%
same,"viability, T/C",[36],67.1%
CC1COCCN1c1cc(C2(O)CC3CCC(C2)O3)c2cnn(-c3ccn[nH]3)c2n1 (stereo unspecified) + Nc1ccc(C#CCN(C(=O)Cc2ncc(C(F)(F)F)cc2C(F)(F)F)c2ccc(F)cc2)nn1,IC50,second compound 0.0316 µM,0.197 µM
same,IC50,second compound 0.1 µM,0.2 µM
same,IC50,second compound 0.316 µM,0.191 µM
same,IC50,second compound 1 µM,0.199 µM
same,IC50,second compound 3.16 µM,0.198 µM
same,IC50,second compound 10 µM,0.186 µM
same,"viability, T/C",[1],96.6%
same,"viability, T/C",[2],66.5%
same,"viability, T/C",[3],40.1%
same,"viability, T/C",[4],14.8%
same,"viability, T/C",[5],8.94%
same,"viability, T/C",[6],4.04%
same,"viability, T/C",[7],105%
same,"viability, T/C",[8],69.9%
same,"viability, T/C",[9],36.8%
same,"viability, T/C",[10],16.9%
same,"viability, T/C",[11],10.6%
same,"viability, T/C",[12],4.15%
same,"viability, T/C",[13],102%
same,"viability, T/C",[14],68.9%
same,"viability, T/C",[15],33.4%
same,"viability, T/C",[16],19.8%
same,"viability, T/C",[17],9.43%
same,"viability, T/C",[18],3.41%
same,"viability, T/C",[19],88.3%
same,"viability, T/C",[20],71%
same,"viability, T/C",[21],35.8%
same,"viability, T/C",[22],14%
same,"viability, T/C",[23],9.22%
same,"viability, T/C",[24],3.83%
same,"viability, T/C",[25],82.5%
same,"viability, T/C",[26],69%
same,"viability, T/C",[27],36.6%
same,"viability, T/C",[28],15.3%
same,"viability, T/C",[29],8.76%
same,"viability, T/C",[30],3.76%
same,"viability, T/C",[31],73.6%
same,"viability, T/C",[32],75.1%
same,"viability, T/C",[33],29.3%
same,"viability, T/C",[34],15.8%
same,"viability, T/C",[35],10.8%
same,"viability, T/C",[36],3.69%
